Values quoted from earlier work as cited in article PMC5742115, “Pharmacophore Modeling and in Silico/in Vitro Screening for Human Cytochrome P450 11B1 and Cytochrome P450 11B2 Inhibitors” (Frontiers in Chemistry, 2017).
Like-named read-outs stand apart in the source and are kept apart here.

Experiments:
CYP11B1 = conditions: cited from earlier work
CYP11B2 = conditions: cited from earlier work
[1] = reported activity, supplementary Table 1, ref Roumen et al., 2010, read-out: CYP11B1 IC50
[2] = reported activity, supplementary Table 1, ref Roumen et al., 2010, read-out: CYP11B2 IC50
[3] = reported activity, supplementary Table 1, ref Hille et al., 2011b, read-out: CYP11B1 IC50
[4] = reported activity, supplementary Table 1, ref Hille et al., 2011b, read-out: CYP11B2 IC50
[5] = reported activity, supplementary Table 1, ref Yin et al., 2013, read-out: CYP11B1 IC50
[6] = reported activity, supplementary Table 1, ref Yin et al., 2013, read-out: CYP11B2 IC50
[7] = Figure 2, ref Yin et al., 2012, Emmerich et al., 2013, Gobbi et al., 2016, read-out: hCYP11B1 IC50
[8] = Figure 2, ref Yin et al., 2012, Emmerich et al., 2013, Gobbi et al., 2016, read-out: hCYP11B2 IC50
[9] = reported activity, supplementary Table 1, ref Heim et al., 2008, read-out: CYP11B1 IC50
[10] = reported activity, supplementary Table 1, ref Heim et al., 2008, read-out: CYP11B2 IC50
[11] = reported activity, supplementary Table 1, ref Ulmschneider et al., 2005a, read-out: CYP11B1 IC50
[12] = reported activity, supplementary Table 1, ref Ulmschneider et al., 2005a, read-out: CYP11B2 IC50
[13] = reported activity, supplementary Table 1, ref Lucas et al., 2011, read-out: CYP11B1 IC50
[14] = reported activity, supplementary Table 1, ref Lucas et al., 2011, read-out: CYP11B2 IC50
[15] = reported activity, supplementary Table 1, ref Hille et al., 2011a, read-out: CYP11B1 IC50
[16] = reported activity, supplementary Table 1, ref Hille et al., 2011a, read-out: CYP11B2 IC50
[17] = reported activity, supplementary Table 1, ref Emmerich et al., 2013, read-out: CYP11B1 IC50
[18] = reported activity, supplementary Table 1, ref Emmerich et al., 2013, read-out: CYP11B2 IC50

For `COC(=O)OCc1cncn1Cc1ccc(C#N)cc1` [CHEMBL599222], the IC50 (CYP11B1; [1]) is listed as 213 nM and the IC50 (CYP11B2; [2]) is listed as 44 nM.
For `c1ccc(C(Cn2ccnc2)(c2ccccc2)c2ccccc2)cc1` [CHEMBL1651508], the IC50 (CYP11B1; [3]) is given as 4 nM and the IC50 (CYP11B2; [4]) is given as 8 nM.
In the case of `O=C1CSc2cc(-c3cccnc3)ccc2N1` [CHEMBL509971], the IC50 (CYP11B1; reported activity, supplementary Table 1, ref Lucas et al., 2008b, read-out: CYP11B1 IC50) is given as 525 nM and the IC50 (CYP11B2; reported activity, supplementary Table 1, ref Lucas et al., 2008b, read-out: CYP11B2 IC50) is given as 12 nM.
For `O=C1CCc2cc(C(c3ccncc3)c3cccc(F)c3)cc3c2N1CC3` (stereo not shown) [CHEMBL2312958], the IC50 (CYP11B1; [5]) is given as 532 nM and the IC50 (CYP11B2; [6]) is given as 88 nM.
For `O=c1c(Cn2ccnc2)c(-c2ccccc2)oc2cc(F)ccc12` [Compound 3], the IC50 (CYP11B1; [7]) is listed as 9.7 nM and the IC50 (CYP11B2; [8]) is listed as 94.9 nM.
For `COc1ccc2cc(-c3cncc(-c4ccccc4)c3)ccc2c1` [CHEMBL500393], the IC50 (CYP11B1; [9]) is listed as 151 nM and the IC50 (CYP11B2; [10]) is listed as 4.8 nM.
For `O=C1CCc2cc(C(C3CC3)n3ccnc3)cc3c2N1CC3` (stereo not shown) [Compound 2], the IC50 (CYP11B1; [7]) is listed as 2.2 nM and the IC50 (CYP11B2; [8]) is listed as 24 nM.
In the case of `Clc1ccc2c(c1)CC/C2=C/c1cccnc1` [CHEMBL193652], the IC50 (CYP11B1; [11]) is given as 270 nM and the IC50 (CYP11B2; [12]) is given as 73 nM.
For `O=C1CCc2cc(C(C3CC3)n3ccnc3)cc3c2N1CC3` (stereo not shown) [CHEMBL2163639], the IC50 (CYP11B1; reported activity, supplementary Table 1, ref Yin et al., 2012, read-out: CYP11B1 IC50) is given as 2.2 nM and the IC50 (CYP11B2; reported activity, supplementary Table 1, ref Yin et al., 2012, read-out: CYP11B2 IC50) is given as 24 nM.
For `O=C1CCc2cc(-c3cncc(-c4ccccc4F)c3)cc3c2N1CC3` [CHEMBL1765220], the IC50 (CYP11B1; [13]) is listed as 43 nM and the IC50 (CYP11B2; [14]) is listed as 0.7 nM.
In the case of `COc1cc2ccccc2cc1-n1ccnc1` [CHEMBL194472], the IC50 (CYP11B1; reported activity, supplementary Table 1, ref Voets et al., 2005, read-out: CYP11B1 IC50) is given as 81 nM and the IC50 (CYP11B2; reported activity, supplementary Table 1, ref Voets et al., 2005, read-out: CYP11B2 IC50) is given as 19 nM.
For `COC(=O)CCc1cncn1Cc1ccc(C#N)cc1` [CHEMBL591229], the IC50 (CYP11B1; [1]) is given as 31 nM and the IC50 (CYP11B2; [2]) is given as 3.5 nM.
For `COc1ccc2ccc(-c3cccnc3)c(F)c2c1` [CHEMBL2420675], the IC50 (CYP11B1; reported activity, supplementary Table 1, ref Pinto-Bazurco Mendieta et al., 2013, read-out: CYP11B1 IC50) is given as 1610 nM and the IC50 (CYP11B2; reported activity, supplementary Table 1, ref Pinto-Bazurco Mendieta et al., 2013, read-out: CYP11B2 IC50) is given as 17 nM.
In the case of `Fc1ccc2c(c1)CC/C2=C\c1cccnc1` [CHEMBL193997], the IC50 (CYP11B1; [11]) is given as 311 nM and the IC50 (CYP11B2; [12]) is given as 7 nM.
For `c1coc(-c2cc(Cn3ccnc3)cnc2-c2ccco2)c1` [CHEMBL2011437], the IC50 (CYP11B1; [15]) is listed as 29 nM and the IC50 (CYP11B2; [16]) is listed as 830 nM.
In the case of `CC(c1ccc(-c2ccsc2)nc1)n1ccnc1` (stereo not shown) [CHEMBL2417625], the IC50 (CYP11B1; [17]) is given as 21 nM and the IC50 (CYP11B2; [18]) is given as 151 nM.
For `CC(C)Oc1cncc(-c2cc3c4c(c2)CCN4C(=O)CC3)c1` [CHEMBL1765210], the IC50 (CYP11B1; [13]) is listed as 103 nM and the IC50 (CYP11B2; [14]) is listed as 2.2 nM.
In the case of `O=C1CCc2cc(-c3cncc(-c4ccc(F)c(F)c4)c3)cc3c2N1CC3` [CHEMBL1765224], the IC50 (CYP11B1; [13]) is given as 496 nM and the IC50 (CYP11B2; [14]) is given as 2.3 nM.
For `O=c1c2ccccc2oc2c(I)ccc(Cn3ccnc3)c12` [CHEMBL2333327], the IC50 (CYP11B1; reported activity, supplementary Table 1, ref Gobbi et al., 2013, read-out: CYP11B1 IC50) is given as 19.2 nM and the IC50 (CYP11B2; reported activity, supplementary Table 1, ref Gobbi et al., 2013, read-out: CYP11B2 IC50) is given as 23.5 nM.
In the case of `c1ccc2c(-c3ccc(Cn4ccnc4)cn3)cccc2c1` [CHEMBL2011253], the IC50 (CYP11B1; [17]) is listed as 68 nM, the IC50 (CYP11B1; [15]) is listed as 42 nM and the IC50 (CYP11B2; [18]) is listed as 656 nM. The IC50 (CYP11B2; [16]) was 2080 nM.
In the case of `Fc1ccc(Cn2ccnc2)cn1` [CHEMBL2331707], the IC50 (CYP11B1; reported activity, supplementary Table 1, ref Blass, 2013b, read-out: CYP11B1 IC50) is listed as 72 nM and the IC50 (CYP11B2; reported activity, supplementary Table 1, ref Blass, 2013b, read-out: CYP11B2 IC50) is listed as 1740 nM.
For `CC(c1ccncc1)c1cc2c3c(c1)CCN3C(=O)CC2` (stereo not shown) [CHEMBL2312950], the IC50 (CYP11B1; [5]) is given as 140 nM and the IC50 (CYP11B2; [6]) is given as 74 nM.
In the case of `c1cn(C(c2ccc(-c3ccsc3)nc2)C2CC2)cn1` (stereo not shown) [CHEMBL2417626], the IC50 (CYP11B1; [17]) is listed as 11 nM and the IC50 (CYP11B2; [18]) is listed as 31 nM.
For `Brc1ccc2c(c1)CC/C2=C\c1cnc[nH]1` [CHEMBL177293], the IC50 (CYP11B1; [11]) is given as 1940 nM, the IC50 (CYP11B2; [12]) is given as 37 nM and the IC50 (CYP11B2; reported activity, supplementary Table 1, ref Ulmschneider et al., 2005b, read-out: CYP11B2 IC50) is given as 92.8 nM.
In the case of `O=C1CCc2cc(-c3cncc(-c4cccc(OC(F)(F)F)c4)c3)cc3c2N1CC3` [CHEMBL1765230], the IC50 (CYP11B1; [13]) is given as 2060 nM and the IC50 (CYP11B2; [14]) is given as 16 nM.
For `Cc1ccccc1Cn1ccnc1` [CHEMBL1651492], the IC50 (CYP11B1; [3]) is given as 61 nM and the IC50 (CYP11B2; [4]) is given as 62 nM.
For `N#Cc1ccc2c(c1)CCC(c1cccnc1)=C2` [CHEMBL500663], the IC50 (CYP11B1; [9]) is given as 461 nM and the IC50 (CYP11B2; [10]) is given as 4.5 nM.
For `CC(c1ccc(-c2ccccc2)nc1)n1ccnc1` (stereo not shown) [CHEMBL2417619], the IC50 (CYP11B1; [17]) is listed as 33 nM and the IC50 (CYP11B2; [18]) is listed as 200 nM.
In the case of `O=C1CCc2cc(-c3cncnc3)cc3c2N1CC3` [CHEMBL1765217], the IC50 (CYP11B1; [13]) is given as 28500 nM and the IC50 (CYP11B2; [14]) is given as 56 nM.
